# From US4937237A, “Phosphinic acid substituted aromatic steroids as inhibitors of steroid 5-60 -reductase” (SmithKline Beckman Corporation, priority 1988, dated 1990)
# Where two headings read alike, the source gives them in different places.
# Experiments:
# [1] = system: human steroid 5-α-reductase; settings: substrate (testosterone), separate experiment
# [2] = target: 5-α-Reductase; settings: cited from earlier work; for Ki / Reversibility of inhibition (with Ki): Table I; for Type of inhibition of steroid 5-α-reductase, in words: literature
# [3] = target: T1, human steroid 5-α-reductase (Homo sapiens, UniProt P31213); experiment: Potency in inhibiting human steroid 5-α-reductase from hyperplastic human prostates ([14C]-testosterone conversion, Dixon plot); format: biochemical
# T1 construct: Frozen human prostates were thawed and minced into small pieces; from tissue; host or cells: hyperplastic human prostate, 140,000×g particulate fraction
# T1 sequence (P31213 1-254): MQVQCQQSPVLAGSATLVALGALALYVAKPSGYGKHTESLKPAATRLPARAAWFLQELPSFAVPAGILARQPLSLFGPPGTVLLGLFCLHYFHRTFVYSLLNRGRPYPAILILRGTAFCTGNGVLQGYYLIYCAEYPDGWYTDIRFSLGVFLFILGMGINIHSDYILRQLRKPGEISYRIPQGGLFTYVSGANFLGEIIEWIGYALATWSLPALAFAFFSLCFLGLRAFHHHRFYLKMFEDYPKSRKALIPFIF
# Description: A compound of the invention, 17β-(N,N-diisopropylcarboxamide)-estr-1,3,5(10)-triene-3-phosphinic acid, was tested for potency in inhibiting human steroid 5-α-reductase using tissue from hyperplastic human prostates. In determining potency in inhibiting the human enzyme, the following procedure was employed:
# Frozen human prostates were thawed and minced into small pieces (5 mm^3). The tissue was homogenized in 3 to 5 volumes of 20 mM potassium phosphate buffer, pH 6.5, containing 0.33M sucrose, 1 mM dithiothreitol, and 50 μM NADPH with a Brinkmann Polytron (Sybron Corporation, Westbury, N.Y.). The solution was subjected to sonication for 3 to 5 minutes with a Sonifier (Branson Sonic Power Co.) followed by hand homogenization in a glass-to-glass Dounce homogenizer (Kontes Glass Company, Vineland, N.J.). […]
# A constant amount of [^14 C]-testosterone (52 to 55 mCi/mmol, New England Nuclear, Boston, MA) in ethanol and varying amounts of the potential inhibitor in ethanol were deposited in test tubes and concentrated to dryness in a SAVANT Speed Vac. […] The radiochemical content in the bands of the substrate and the products was determined with a BIOSCAN Imaging Scanner (Bioscan, Inc., Washington, D.C.). The percent of recovered radiolabel converted to product was calculated, from which enzyme activity was determined. […]
Structure (SMILES),Ki ([2]; literature references),Reversibility of inhibition (with Ki) ([2]; literature references),other results
C[C@]12CC[C@H]3[C@@H](CCC4=CC(=O)CC[C@@]43C)[C@@H]1CC[C@@H]2O [testosterone],,,Km [1]: 4.5 µM
CCN(CC)C(=O)[C@H]1CC[C@H]2[C@@H]3CC[C@H]4N(C)C(=O)CC[C@]4(C)[C@H]3CC[C@]12C [(4)],5 nM,Reversible,
C=C1C[C@@H]2[C@H](CC[C@@]3(C)[C@H]2CC[C@]3(OC(C)=O)C(C)=O)[C@@]2(C)CCC(=O)C=C12 [(5)],1250 nM,Irreversible,"Type of inhibition of steroid 5-α-reductase, in words [2]: time-dependent inactivator"
CC(CO)[C@H]1CC[C@H]2[C@@H]3CC[C@H]4C(=[N+]=[N-])C(=O)CC[C@]4(C)[C@H]3CC[C@]12C (stereo partly drawn) [(3)],,Irreversible,"Ki ([2]; literature reference, unit inferred): 35 nM; Type of inhibition of steroid 5-α-reductase, in words [2]: potent, time-dependent inhibitor"
C[C@]12CC[C@H]3[C@@H](CCC4=CC(=O)CC[C@@]43C)[C@@H]1CC[C@@H]2C(=O)O [(1)],1100 nM,Reversible,
"CC(C)N(C(=O)[C@H]1CC[C@H]2[C@@H]3CCc4cc([PH](=O)O)ccc4[C@H]3CC[C@]12C)C(C)C [17β-(N,N-Diisopropylcarboxamide)-estr-1,3,5(10)-triene-3-phosphinic Acid]",,,"Ki [3]: 13 nM; Potency as inhibitor of human steroid 5-α-reductase, in words ([3]; concluded from low Ki): potent inhibitor"
CC(=O)C1CCC2C3CC=C=CC(=O)CCC(=O)C3CCC12C (stereo not drawn) [(2)],1000 nM,Irreversible,
